We go through 15 compounds from patent USRE46792E1, “Oxazole compound and pharmaceutical composition” (Otsuka Pharmaceutical Co., Ltd., priority 2005, dated 2018).

A value given as a limit tells only on which side of the number the result lay.

In one experiment the target is human PDE4D3 (PDE4D) (Homo sapiens (Human), UniProt Q08499). Put plainly: Phosphodiesterase (PDE)4 inhibitory activity evaluation test ([3H]cAMP hydrolysis by PDE4D enzyme solution). The experiment is classed as biochemical. To be noted: recombinant human PDE4D3 expressed in COS-7 cells; [3H]cAMP substrate; 10 min at 30° C.; 2% DMSO. Summed up: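 Human PDE4D3 expressed in COS-7 cells; cell supernatant used as enzyme at a dilution giving 10–30% cAMP turnover. Compounds (10-fold serial dilutions, 2% final DMSO) incubated with enzyme and 2 μM [3H]cAMP stock in 20 mM Tris-HCl pH 7.4 with MgCl2 for 10 min at 30° C. Reaction stopped by boiling.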
human PDE4D3 (PDE4D), sequence (Q08499 other isoform, or with tags, fused parts or gaps): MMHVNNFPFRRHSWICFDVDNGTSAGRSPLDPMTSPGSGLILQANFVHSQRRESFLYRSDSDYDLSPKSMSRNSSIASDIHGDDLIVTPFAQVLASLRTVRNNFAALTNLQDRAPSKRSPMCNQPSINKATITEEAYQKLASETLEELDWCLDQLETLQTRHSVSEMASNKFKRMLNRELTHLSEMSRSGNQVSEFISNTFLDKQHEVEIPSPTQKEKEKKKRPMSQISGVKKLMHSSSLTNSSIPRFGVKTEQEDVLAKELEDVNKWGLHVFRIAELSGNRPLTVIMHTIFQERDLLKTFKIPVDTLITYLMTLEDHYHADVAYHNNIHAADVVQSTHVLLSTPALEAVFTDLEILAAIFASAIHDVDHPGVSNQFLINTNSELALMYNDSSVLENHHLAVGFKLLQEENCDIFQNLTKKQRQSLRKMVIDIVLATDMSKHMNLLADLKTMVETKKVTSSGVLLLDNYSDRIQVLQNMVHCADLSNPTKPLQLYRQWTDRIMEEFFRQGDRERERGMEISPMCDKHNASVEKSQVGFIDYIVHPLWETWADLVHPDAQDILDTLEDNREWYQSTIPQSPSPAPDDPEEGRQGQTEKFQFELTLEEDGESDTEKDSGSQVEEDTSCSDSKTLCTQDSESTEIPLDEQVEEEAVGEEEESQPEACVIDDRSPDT

The test system of experiment [1] is TNF-α production in mouse peripheral blood mononuclear cells. The experiment in a line: Inhibitory activity measurement on TNF-α production (LPS-stimulated mouse peripheral blood mononuclear cells, ELISA). To be noted: PBMC, LPS 1 μg/ml, 5 hours at 37° C., ELISA of culture supernatant. The class given is cell-based, mouse (male BALB/c). Here is the method: Inhibitory Activity Measurement on TNF-α Production
TNF-α production inhibitory activity was evaluated according to the following tests.
(1) Isolation of Mononuclear Cells from Mouse Peripheral Blood
Mononuclear cells were isolated from heparinized blood obtained from male BALB/c mice (Charles River Laboratories, Japan) by density gradient centrifugation using Lympholyte-M (Cedarlane Laboratories). Viable cell numbers in the peripheral blood mononuclear cells were counted using trypan blue dye, and prepared in cell culture medium (RPMI 1640 medium containing 10% FCS) to 1.25×10^6 cells/ml.
(2) Induction of TNF-α Production
Test compounds were dissolved in DMSO, and test compound solutions were diluted for use in cell culture media. 20 μl test compound solutions of different concentrations and 160 μl peripheral blood mononuclear cell suspensions were placed in a 96-well plate, and cultured for 30 minutes. 20 μl (final concentration 1 μg/ml) lipopolysaccharide (LPS) derived from E. coli (serotype 055:B5) was added thereto to induce THF-α production. The mixtures were then cultured at 37° C. for 5 hours, and the culture supernatant was removed from each well.
(3) Measurement of TNF-α Concentration
TNF-α concentrations in the culture supernatants were measured by ELISA (OptEIA™ Set Mouse TNF-α, BD Pharmingen). The IC50 values (concentration which produced 50% inhibition of TNF-α production) for the test compounds were determined with the Excel (Microsoft Excel 2000 SR-1) statistical package using regression analysis function.
(An ELISA detects its analyte on a solid surface through an enzyme-linked reagent.)

`COc1ccc(-c2nc(CCC(=O)c3ncccc3C)co2)cc1OC1C=CCCC1` (stereo not shown) [Example 157, 3-{2-[3-(2-cyclohexenyloxy)-4-methoxyphenyl]oxazol-4-yl}-1-(3-methylpyridin-2-yl)propan-1-one]: the IC50 (on human PDE4D3 (PDE4D); in experiment [1]) was under 50 nM each time.
`COc1ccc(-c2nc(CCC(=O)c3ncccc3OC)co2)cc1OCC1CC1` [Example 126] showed an IC50 in experiment [1] of under 50 nM.
In the case of `COc1ccc(-c2nc(CNC(=O)c3c(F)cccc3OC)co2)cc1OCC1CC1` [Example 43, N-[2-(3-cyclopropylmethoxy-4-methoxyphenyl)oxazol-4-ylmethyl]-2-fluoro-6-methoxybenzamide], the IC50 (at human PDE4D3 (PDE4D); in experiment [1]) was under 50 nM throughout.
For `COc1ccc(-c2nc(CNC(=O)c3ncccc3C)co2)cc1OC1CCCC1` [Example 18, N-[2-(3-cyclopentyloxy-4-methoxyphenyl)oxazol-4-ylmethyl]-3-methylpicolinamide], the IC50 (on human PDE4D3 (PDE4D); in experiment [1]) was under 50 nM throughout.
Consider `COc1ccc(-c2nc(CCC(=O)c3ncccc3C)co2)cc1OCC1CC1` [Example 137, 3-[2-(3-cyclopropylmethoxy-4-methoxyphenyl)oxazol-4-yl]-1-(3-methylpyridin-2-yl)propan-1-one], for which, at human PDE4D3 (PDE4D), the IC50 was under 50 nM.
For the compound `C=CCCOc1cc(-c2nc(CCC(=O)c3ncccc3C)co2)ccc1OC` [Example 146, 3-[2-(3-(3-butenyloxy)-4-methoxyphenyl)oxazol-4-yl]-1-(3-methylpyridin-2-yl)propan-1-one], the IC50 on human PDE4D3 (PDE4D) is under 50 nM.
For the compound `CCOc1ccccc1C(=O)NCc1coc(-c2ccc(OC(F)F)c(OCC(F)(F)F)c2)n1` [Example 383, N-{2-[4-difluoromethoxy-3-(2,2,2-trifluoroethoxy)phenyl]-oxazol-4-ylmethyl}-2-ethoxy benzamide], the half-inhibitory concentration (IC50) at human PDE4D3 (PDE4D) was under 50 nM.
The same measure, in the same setting: the same measure for `CCOc1cccnc1C(=O)CCc1coc(-c2ccc(OC)c(OCC3CC3)c2)n1` [Example 133, 3-[2-(3-cyclopropylmethoxy-4-methoxyphenyl)oxazol-4-yl]-1-(3-ethoxypyridin-2-yl)propan-1-one]: under 50 nM.
On to `CCC(CC)Oc1cc(-c2nc(CNC(=O)c3ncccc3C)co2)ccc1OC` [Example 324, N-{2-[3-(1-ethylpropoxy)-4-methoxyphenyl]oxazol-4-ylmethyl}-3-methylpicolinamide], for which, at human PDE4D3 (PDE4D), the 50% inhibitory concentration (IC50) is under 50 nM.
Consider `C=CCOc1ccccc1C(=O)CCc1coc(-c2ccc(OC)c(OCC3CC3)c2)n1` [Example 177, 1-(2-allyloxyphenyl)-3-[2-(3-cyclopropylmethoxy-4-methoxyphenyl)oxazol-4-yl]propan-1-one], for which the IC50 (at human PDE4D3 (PDE4D); in experiment [1]) was under 50 nM throughout.
For `CCCOc1cccnc1C(=O)NCc1coc(-c2ccc(OC)c(OCC3CC3)c2)n1` [Example 61], the concentration for half-maximal inhibition (IC50) on human PDE4D3 (PDE4D) is under 50 nM.
As for `COc1ccc(-c2nc(CNC(=O)c3ncccc3C)co2)cc1OCC(F)(F)F` [Example 19, N-{2-[4-methoxy-3-(2,2,2-trifluoroethoxy)phenyl]oxazol-4-ylmethyl}-3-methylpicolinamide], at human PDE4D3 (PDE4D), the IC50 is under 50 nM.
`C=CCOc1cc(-c2nc(CCC(=O)c3ccccc3OCC=C)co2)ccc1OC` [Example 166, 3-[2-(3-allyloxy-4-methoxyphenyl)oxazol-4-yl]-1-(2-allyloxyphenyl)propan-1-one]: the IC50 on human PDE4D3 (PDE4D) is under 50 nM.
Turning to `CCC(CC)Oc1cc(-c2nc(CNC(=O)c3ncccc3C)co2)ccc1OC(F)F` [Example 342, N-{2-[4-difluoromethoxy-3-(1-ethylpropoxy)phenyl]oxazol-4-ylmethyl}-3-methylpicolinamide], the half-maximal inhibitory concentration (IC50) at human PDE4D3 (PDE4D) is under 50 nM.
Take `CCOc1ccc(-c2nc(CCC(=O)c3ccccc3OCC(F)F)co2)cc1OCC` [Example 290, 3-[2-(3,4-diethoxyphenyl)oxazol-4-yl]-1-[2-(2,2-difluoroethoxy)phenyl]propan-1-one]: the IC50 on human PDE4D3 (PDE4D) is under 50 nM.

One may read the IC50 as the concentration needed to halve the response being measured.
